Laboratory results: PubChem BioAssay (NCI)
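In this assay, cells in 96-well plates receive the compound at five concentrations for 48 hours. Endpoints are linearly interpolated between the surrounding concentrations. At the GI50, growth is halved. Definition used: TGI = concentration required for complete inhibition of growth.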

What was measured:
Assay in all cases: growth of human tumour cells (NCI), 48 h
SF-295 CNS = tested on: SF-295 CNS
EKVX NSCLC = tested on: EKVX NSCLC
A498 renal = tested on: A498 renal
M14 melanoma = tested on: M14 melanoma
K-562 leukemia = tested on: K-562 leukemia
SNB-19 CNS = tested on: SNB-19 CNS
OVCAR-5 ovarian = tested on: OVCAR-5 ovarian
HOP-62 NSCLC = tested on: HOP-62 NSCLC
ACHN renal = tested on: ACHN renal
UO-31 renal = tested on: UO-31 renal
KM12 colon = tested on: KM12 colon
HL-60(TB) leukemia = tested on: HL-60(TB) leukemia
SF-539 CNS = tested on: SF-539 CNS
MDA-MB-435 = tested on: MDA-MB-435
HCT-116 colon = tested on: HCT-116 colon
NCI/ADR-RES ovarian = tested on: NCI/ADR-RES ovarian
A549 NSCLC = tested on: A549 NSCLC
MCF7 breast = tested on: MCF7 breast
CAKI-1 renal = tested on: CAKI-1 renal
SK-MEL-28 melanoma = tested on: SK-MEL-28 melanoma
SR leukemia = tested on: SR leukemia
DU-145 prostate = tested on: DU-145 prostate
UACC-62 melanoma = tested on: UACC-62 melanoma
SW-620 colon = tested on: SW-620 colon
786-0 renal = tested on: 786-0 renal
NCI-H226 lung = tested on: NCI-H226 lung
IGROV1 ovarian = tested on: IGROV1 ovarian
NCI-H460 lung = tested on: NCI-H460 lung
MDA-MB-231 breast = tested on: MDA-MB-231 breast
SF-268 CNS = tested on: SF-268 CNS
RPMI-8226 leukemia = tested on: RPMI-8226 leukemia
HCT-15 colon = tested on: HCT-15 colon
T-47D breast = tested on: T-47D breast
HT29 colon = tested on: HT29 colon
PC-3 prostate = tested on: PC-3 prostate
RXF 393 renal = tested on: RXF 393 renal
OVCAR-8 ovarian = tested on: OVCAR-8 ovarian
BT-549 breast = tested on: BT-549 breast
MALME-3M melanoma = tested on: MALME-3M melanoma
UACC-257 melanoma = tested on: UACC-257 melanoma
TK-10 renal = tested on: TK-10 renal
U251 CNS = tested on: U251 CNS
SN12C renal = tested on: SN12C renal
OVCAR-4 ovarian = tested on: OVCAR-4 ovarian
OVCAR-3 ovarian = tested on: OVCAR-3 ovarian
HS 578T breast = tested on: HS 578T breast
HOP-92 NSCLC = tested on: HOP-92 NSCLC
SK-MEL-2 melanoma = tested on: SK-MEL-2 melanoma
NCI-H23 lung = tested on: NCI-H23 lung
MOLT-4 leukemia = tested on: MOLT-4 leukemia
SK-MEL-5 melanoma = tested on: SK-MEL-5 melanoma
SNB-75 CNS = tested on: SNB-75 CNS
HCC-2998 colon = tested on: HCC-2998 colon
COLO 205 colon = tested on: COLO 205 colon
SK-OV-3 ovarian = tested on: SK-OV-3 ovarian
CCRF-CEM leukemia = tested on: CCRF-CEM leukemia
NCI-H522 lung = tested on: NCI-H522 lung

## O=C(Nc1cccc(Cl)c1)Nc1nc2ccc([N+](=O)[O-])cc2o1
SF-295 CNS
  GI50: 1990 nM
  TGI: 6.02 µM
EKVX NSCLC
  GI50: 2.82 µM
  TGI: > 100 µM
A498 renal
  GI50: 1.56 µM
  TGI: 4.5 µM
M14 melanoma
  GI50: 2540 nM
  TGI: 22.8 µM
K-562 leukemia
  GI50: 3020 nM
  TGI: > 100 µM
SNB-19 CNS
  GI50: 2.79 µM
  TGI: 86.5 µM
OVCAR-5 ovarian
  GI50: 4.32 µM
  TGI: > 100 µM
HOP-62 NSCLC
  GI50: 2490 nM
  TGI: 9.14 µM
ACHN renal
  GI50: 3.23 µM
  TGI: 12.7 µM
UO-31 renal
  GI50: 2670 nM
  TGI: 7.82 µM
KM12 colon
  GI50: 3.17 µM
  TGI: > 100 µM
HL-60(TB) leukemia
  GI50: 2090 nM
  TGI: 4.99 µM
SF-539 CNS
  GI50: 2750 nM
  TGI: 7.32 µM
MDA-MB-435
  GI50: 2.88 µM
  TGI: > 100 µM
HCT-116 colon
  GI50: 2590 nM
  TGI: 10.3 µM
NCI/ADR-RES ovarian
  GI50: 2.66 µM
  TGI: 8.84 µM
A549 NSCLC
  GI50: 3.06 µM
  TGI: > 100 µM
MCF7 breast
  GI50: 2820 nM
  TGI: > 100 µM
CAKI-1 renal
  GI50: 2170 nM
  TGI: 7.56 µM
SK-MEL-28 melanoma
  GI50: 3220 nM
  TGI: > 100 µM
SR leukemia
  GI50: 2690 nM
  TGI: 7.84 µM
DU-145 prostate
  GI50: 3.53 µM
  TGI: > 100 µM
UACC-62 melanoma
  GI50: 1540 nM
  TGI: 4.81 µM
SW-620 colon
  GI50: 2710 nM
  TGI: > 100 µM
786-0 renal
  GI50: 2490 nM
  TGI: 7.77 µM
NCI-H226 lung
  GI50: 2130 nM
  TGI: 5.42 µM
IGROV1 ovarian
  GI50: 2830 nM
  TGI: > 100 µM
NCI-H460 lung
  GI50: 1.74 µM
  TGI: 5.88 µM
MDA-MB-231 breast
  GI50: 2670 nM
  TGI: 8.54 µM
SF-268 CNS
  GI50: 3.04 µM
  TGI: > 100 µM
RPMI-8226 leukemia
  GI50: 1480 nM
  TGI: 5.02 µM
HCT-15 colon
  GI50: 2460 nM
  TGI: > 100 µM
T-47D breast
  GI50: 1470 nM
  TGI: 7.59 µM
HT29 colon
  GI50: 3080 nM
  TGI: > 100 µM
PC-3 prostate
  GI50: 2180 nM
  TGI: 9.12 µM
RXF 393 renal
  GI50: 1660 nM
  TGI: 5.16 µM
OVCAR-8 ovarian
  GI50: 3120 nM
  TGI: > 100 µM
BT-549 breast
  GI50: 2090 nM
  TGI: 7.79 µM
MALME-3M melanoma
  GI50: 2490 nM
  TGI: 36 µM
UACC-257 melanoma
  GI50: 2250 nM
  TGI: 18.3 µM
TK-10 renal
  GI50: 3.5 µM
  TGI: 8.43 µM
U251 CNS
  GI50: 2710 nM
  TGI: > 100 µM
SN12C renal
  GI50: 2280 nM
  TGI: 7.43 µM
OVCAR-4 ovarian
  GI50: 2.56 µM
  TGI: > 100 µM
OVCAR-3 ovarian
  GI50: 2510 nM
  TGI: 11.4 µM
HS 578T breast
  GI50: 3.3 µM
  TGI: 54.4 µM
HOP-92 NSCLC
  GI50: 1650 nM
  TGI: 6.04 µM
SK-MEL-2 melanoma
  GI50: 2090 nM
  TGI: 6.11 µM
NCI-H23 lung
  GI50: 1900 nM
  TGI: 7.09 µM
MOLT-4 leukemia
  GI50: 2360 nM
  TGI: 7.71 µM
SK-MEL-5 melanoma
  GI50: 1510 nM
  TGI: 4.19 µM
SNB-75 CNS
  GI50: 2.68 µM
  TGI: 9.8 µM
HCC-2998 colon
  GI50: 3190 nM
  TGI: 48.3 µM
COLO 205 colon
  GI50: 2.4 µM
  TGI: 7.82 µM
SK-OV-3 ovarian
  GI50: 2.7 µM
  TGI: 8.33 µM

## C=C(C=O)[C@@H]1CC[C@]2(C(=O)O)CC[C@]3(C)C(CC[C@@H]4[C@@](C)(CCC#N)[C@H](C(=C)C=O)CC[C@]43C)[C@@H]12 (stereo partly specified)
SF-295 CNS
  GI50: 3070 nM
  TGI: 11.6 µM
EKVX NSCLC
  GI50: 6.64 µM
  TGI: 23.9 µM
A498 renal
  GI50: 14.2 µM
  TGI: 29.3 µM
M14 melanoma
  GI50: 1920 nM
  TGI: 4.1 µM
K-562 leukemia
  GI50: 2760 nM
  TGI: 9.34 µM
SNB-19 CNS
  GI50: 3.93 µM
  TGI: 18.3 µM
OVCAR-5 ovarian
  GI50: 2.37 µM
  TGI: 6.69 µM
CCRF-CEM leukemia
  GI50: 2780 nM
  TGI: 8.75 µM
HOP-62 NSCLC
  GI50: 2080 nM
  TGI: 4.67 µM
ACHN renal
  GI50: 3.26 µM
  TGI: 10.5 µM
UO-31 renal
  GI50: 2500 nM
  TGI: 8.02 µM
KM12 colon
  GI50: 3.22 µM
  TGI: 10.6 µM
NCI-H522 lung
  GI50: 2260 nM
  TGI: 6.2 µM
HL-60(TB) leukemia
  GI50: 2020 nM
  TGI: 7.8 µM
SF-539 CNS
  GI50: 2910 nM
  TGI: 9.31 µM
MDA-MB-435
  GI50: 3.21 µM
  TGI: 11.4 µM
HCT-116 colon
  GI50: 1800 nM
  TGI: 3.46 µM
NCI/ADR-RES ovarian
  GI50: 3.87 µM
  TGI: 34.5 µM
A549 NSCLC
  GI50: 7.29 µM
  TGI: 23.9 µM
MCF7 breast
  GI50: 2900 nM
  TGI: 12.1 µM
CAKI-1 renal
  GI50: 3380 nM
  TGI: 15.4 µM
SK-MEL-28 melanoma
  GI50: 2450 nM
  TGI: 6.22 µM
DU-145 prostate
  GI50: 3.72 µM
  TGI: 12.7 µM
UACC-62 melanoma
  GI50: 2000 nM
  TGI: 4.88 µM
SW-620 colon
  GI50: 2180 nM
  TGI: 4.79 µM
786-0 renal
  GI50: 1860 nM
  TGI: 3.8 µM
IGROV1 ovarian
  GI50: 2820 nM
  TGI: 8.47 µM
NCI-H460 lung
  GI50: 5.56 µM
  TGI: 19.8 µM
MDA-MB-231 breast
  GI50: 3050 nM
  TGI: 9.1 µM
SF-268 CNS
  GI50: 6.22 µM
  TGI: 26.2 µM
RPMI-8226 leukemia
  GI50: 2630 nM
  TGI: 7.26 µM
T-47D breast
  GI50: 3280 nM
  TGI: 15.2 µM
HT29 colon
  GI50: 1990 nM
  TGI: 4.03 µM
PC-3 prostate
  GI50: 1950 nM
  TGI: 5.28 µM
RXF 393 renal
  GI50: 1980 nM
  TGI: 3.68 µM
OVCAR-8 ovarian
  GI50: 2590 nM
  TGI: 7.06 µM
BT-549 breast
  GI50: 1820 nM
  TGI: 3.57 µM
MALME-3M melanoma
  GI50: 2530 nM
  TGI: 8.01 µM
UACC-257 melanoma
  GI50: 1800 nM
  TGI: 3.88 µM
TK-10 renal
  GI50: 3.34 µM
  TGI: 13.5 µM
U251 CNS
  GI50: 1880 nM
  TGI: 3.84 µM
SN12C renal
  GI50: 3200 nM
  TGI: 15.2 µM
OVCAR-4 ovarian
  GI50: 4.22 µM
  TGI: 23.5 µM
HS 578T breast
  GI50: 3.17 µM
  TGI: 18.9 µM
HOP-92 NSCLC
  GI50: 1370 nM
  TGI: 3.55 µM
SK-MEL-2 melanoma
  GI50: 1990 nM
  TGI: 4.01 µM
NCI-H23 lung
  GI50: 2130 nM
  TGI: 4.87 µM
MOLT-4 leukemia
  GI50: 2710 nM
  TGI: 13.7 µM
SK-MEL-5 melanoma
  GI50: 1780 nM
  TGI: 3.33 µM
SNB-75 CNS
  GI50: 6.07 µM
  TGI: 22.3 µM
HCC-2998 colon
  GI50: 1930 nM
  TGI: 3.81 µM
COLO 205 colon
  GI50: 10.9 µM
  TGI: 27.7 µM
SK-OV-3 ovarian
  GI50: 8.49 µM
  TGI: 23.1 µM
